Bridge positions count the residues as written; N and C are the ends. Square brackets hold non-standard residues; d marks the D form. Peptide text beside a SMILES is read from it.
Legend:
[1] = test system: NF-κB; experiment: Inhibition of NF-κB signaling in LPS-stimulated T84 cells, Western blot; format: cell-based, human
Method: Approximately 1.5×10^6 T84 cells were seeded into 100 mm dishes and cultured essentially as described (Shailubhai et al. 2000). At 85-90% confluence, cells were washed and treated with 10 μg/ml lipopolysaccharides (LPS) from Escherichia coli (Sigma-Aldrich, St. Louis, Mo.) for 4 h. Subsequent to LPS treatment, cells were washed and replenished with fresh media containing 8-Bromo-cyclic GMP (8-Br-cGMP) at 0, 0.1, 1, 10, 100 and 1000 μM (Enzo Life Science, Farmingdale, N.Y.), or SP-333 at 0, 0.01, 0.1, 1 and 10 μM together with 500 μM of phosphodiesterase inhibitor Zaprinast (Sigma-Aldrich, St. Louis, Mo.) for 16 h before harvest. For analyzing phosphorylation status of IKK-α/β, T84 cells were stimulated with LPS (10 μg/ml) for 4 h followed by treatment with 0.1 and 1.0 μM of SP-333 in the presence of 500 μM Zaprinast, for 2 h. The control cells (without LPS treatment) were washed and refilled with fresh media and harvested simultaneously with treated cells. Nuclear and cytosolic extracts were prepared by the previously described method (Aiamkitsumrit et al. 2007). Protein concentration was measured with a Bio-Rad protein assay kit (Bio-Rad, Hercules, Calif.). The extracts were stored at −80° C. until use.
T84 cells at 85-90% confluence were washed and treated with 10 μg/ml Escherichia coli LPS (Sigma-Aldrich, St. Louis, Mo.) for 4 h.
Western Blot analysis: This was performed essentially as described^21 employing either 50 μg of cytoplasmic or 25 μg proteins of the nuclear fractions. The blots were probed overnight with primary antibodies of interest (anti-p65 antibody, 1:200 dilution; anti-IκB antibody 1:500 dilution; anti-phosphorylated p65 antibody, 1:250 dilution; anti-phosphorylated IκB antibody 1:250 dilution; all were from Santa Cruz Biotechnology (Santa Cruz, Calif.). Anti-IKK-β and phosphorylated IKK-α/β (Ser 176/180) were purchased from Cell Signaling Technology, Boston, Mass. and used at 1:500 dilution; anti-mouse or anti-rabbit antibodies conjugated to […] were used for chemiluminescence detection as recommended by manufacturer (GE Healthcare, Piscataway, N.J.).

[2] = test system: Ki-67 labeling of crypt epithelial cells; experiment: Ki-67 labeling in large bowel cross sections, DSS-induced colitis in BDF-1 mice; format: in vivo, mouse
From the text: A total of 40 samples were chosen for analysis of MPO activity and Ki-67 labeling from the treatment groups that received SP-333, its vehicle control (0.1M phosphate buffer, pH 7) and the reference compound (5-ASA). A random number generator (www.random.org) was employed to select samples from these groups (7 from each of the SP-333-recipient groups and 6 from each of the vehicle and 5-ASA groups).
Employing standard procedures, two non-serial sections from each animal, were de-waxed in xylene and rehydrated in graded alcohols to PBS (pH 7.4). Endogenous peroxidase was blocked by incubation in 0.3% […] for 30 min. Antigen retrieval was performed by placing the slides in 1 L of citrate buffer (pH 6) and microwaving at high power for 20 minutes. After cooling for 15 minutes, sections were incubated with 10% normal goat serum for 30 minutes to block non-specific binding Primary antibody (mouse monoclonal IgG, clone MIB-1, Dako) at 1/50 dilution was added and incubated for 1 hour at room temperature. Sections were washed and incubated with biotinylated secondary IgG antibody (1/200 dilution; Vector Labs Inc.), for 45 minutes at room temperature. Subsequently, slides were washed and incubated with ABC Elite reagents (Vector Labs Inc.), for 30 minutes at room temperature. […] Sections were counterstained with thionine, dehydrated and mounted.

[3] = test system: DSS-induced colitis; experiment: DSS-induced colitis in BDF-1 mice; format: in vivo, mouse
Method: To evaluate the efficacy of plecanatide in DSS induced colitis model, 48 BDF-1 mice were divided into 8 treatment groups (6 mice/group). One group was not exposed to DSS (untreated control) and groups 2-8 were treated with 5% DSS in the drinking water on day 0. Plecanatide or SP-333 solutions formulated in 0.1M phosphate buffer (pH 7) was administered by oral gavage, once a day at 0.005, 0.05, 0.5, 2.5 and 5 mg/kg, from study day −1 (i.e. prior to initiation of DSS treatment) through day 6 for SP-333 or day 7 for plecanatide. DSS treatment was initiated on day 0 for groups 2-8 until the end of the study. Sulfasalazine (80 mg/kg) or 5-ASA (100 mg/kg) was used as positive control and was administered daily. Mice were sacrificed on day 7. The large intestine was removed and weighed. Distal section of the large intestine was collected and fixed as described above.
Disease activity index (DAI) was calculated by scoring in-life parameters starting from day −1 until the end of the study. Once daily, all mice were weighed and assessed for stool consistency, and the presence of overt blood in the stool or around the anus essentially similar to that reported earlier. Colitis severity was assessed by histopathological analyses of H&E stained tissue sections (Hegazi et al., 2005; Dave et al., 2009) employing the following criteria: (score 0) normal appearing crypts; (score 1) abnormal crypt pathology without ulceration; (score 2) depleted crypts with ulceration; (score 3) 20-50% depleted crypts and increased ulceration; (score 4) >50% depleted crypts with substantial ulceration and (score 5) totally ulcerated/inflamed colon with no crypts remaining. All slides were scored in a blinded manner. Colitis severity in TCRα−/− model was scored as previously described^25. All slides were scored in a blinded manner. Disease activity index (DAI) was calculated by assessing body weight, stool consistency, and the presence of overt blood in stools or around the anus, essentially similar to that reported earlier (Hamamoto et al., 1999).

[4] = SP-333 0.005 to 5 mg/kg oral daily, vs DSS alone or DSS plus vehicle

For CC(C)C[C@@H]1NC(=O)[C@H](CCC(=O)O)NC(=O)[C@@H](NC(=O)[C@H](CCC(=O)O)NC(=O)[C@H](CC(=O)O)NC(=O)[C@H](N)CC(N)=O)CSSC[C@@H]2NC(=O)[C@H](C)NC(=O)[C@H](C(C)C)NC(=O)[C@H](CC(N)=O)NC(=O)[C@H](C(C)C)NC(=O)[C@H](CSSC[C@@H](C(=O)N[C@H](CC(C)C)C(=O)O)NC(=O)CNC(=O)[C@H]([C@@H](C)O)NC2=O)NC1=O [SP-333, dAsn^1-Asp^2-Glu^3-Cys^4-Glu^5-Leu^6-Cys^7-Val^8-Asn^9-Val^10-Ala^11-Cys^12-Thr^13-Gly^14-Cys^15-dLeu^16] (H-[dN]DECELCVNVACTGC[dL]-OH; disulfide 4-12, 7-15; N-terminus and C-terminus assumed), which “levels of phospho-p65” value ([1]; LPS 10 μg/ml 4 h, then SP-333 (1.0 and 10 μM) 16 h, zaprinast 500 μM) is on record?
Its value is “reduced levels of phospho-p65 in a dose-dependent manner”.

What about the “levels of IκBα” value ([1]; LPS-activated T84 cells) of the same compound?
The value was “increase”.

And the “levels of phospho-IκBα” value ([1]; LPS-activated T84 cells)?
The value was “reduced”.

And the “level of total IKKβ” value ([1]; LPS-activated T84 cells, FIG. 3C)?
Its value is “remained unchanged”.

And the “LPS-mediated increase in phosphorylation of IKKβ” value ([1]; SP-333 1 μM, 2 h after LPS 4 h)?
Its value is “completely reversed”.

What about the “LPS induced activation of NF-κB” value ([1]; T84 cells) of the same compound?
Its value is “inhibited”.

What about the “crypts with normal Ki-67 labeling, comparison among groups” value ([2]; SP-333 0.005 mg/kg) of the same compound?
The value was “greatest percentage of crypts with normal Ki-67 labeling”.

And the “proportion of Ki-67 positive crypts” value ([2]; SP-333 0.005 mg/kg/day (DSS control 35.3±4.86%))?
Its value is 60.4±6.96%.

What about the “proportion of Ki-67 positive crypts” value ([2]; SP-333 0.05 mg/kg/day) of the same compound?
Its value is 58.7±7.3%.

What about the “proportion of crypts with Ki-67 labeling vs DSS treated control” value ([2]; SP-333 treated sections) of the same compound?
Its value is “larger proportions of crypts with Ki-67 labeling”.

And the histopathology score ([3]; DSS+SP-333 0.005 mg/kg, representative image FIG. 10C (DSS alone 4))?
The histopathology score was 1.

What about the histopathology score ([3]; DSS+SP-333 0.05 mg/kg, representative image FIG. 10D) of the same compound?
The histopathology score was 2.

And the histopathology score ([3]; DSS+SP-333 0.5 mg/kg, representative image FIG. 10E)?
Its histopathology score is 2.

What about the “amelioration of colitis compared with 5-ASA” value ([3]; SP-333 0.005 mg/kg oral) of the same compound?
The value was “as effective as 5-ASA (100 mg/kg)”.

And the DAI ([3]; SP-333 0.05 mg/kg oral, vs DSS vehicle control, p=0.041)?
The DAI was “significant reduction”.

And the “mean DAI scores” value [3, 4]?
Its value is “lower”.

And the “mean scores of colitis severity” value [3, 4]?
Its value is “lower”.

What about the “histological evaluation of colon tissues (crypts)” value ([3]; SP-333 treatment groups) of the same compound?
Its value is “minimal loss of crypts with very low distortions in crypt morphology”.
